Some test systems named below: IGROV1 ovarian; HOP-92 NSCLC; COLO 205 colon; BT-549 breast; RXF 393 renal; MDA-MB-231 breast; LOX IMVI melanoma; UACC-257 melanoma; M14 melanoma; SF-295 CNS; T-47D breast; SK-OV-3 ovarian; DU-145 prostate; OVCAR-8 ovarian; MALME-3M melanoma; UACC-62 melanoma; HL-60(TB) leukemia; HS 578T breast.
Test in all cases: growth of human tumour cells (NCI), 48 h

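All cell lines were grown in 96-well plates and treated with compound for 48 hours. TGI: concentration producing complete growth inhibition.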 Some results are limits rather than exact numbers.

For the compound `N#Cc1c2ccc([N+](=O)[O-])cc2c(=O)n2c1sc1ccc(C(F)(F)F)cc12`, the TGI with IGROV1 ovarian, in the assay on HOP-92 NSCLC, with COLO 205 colon, with BT-549 breast, with RXF 393 renal and in the assay on MDA-MB-231 breast was above 100 µM throughout. Also, the TGI in the assay with LOX IMVI melanoma, in the assay with UACC-257 melanoma, with M14 melanoma, with SF-295 CNS, with T-47D breast and in the assay with SK-OV-3 ovarian was above 100 µM throughout. Also, the TGI in the assay with DU-145 prostate, with OVCAR-8 ovarian and in the assay on MALME-3M melanoma was above 100 µM each time.

`C/C=C(C)/C=C/CC(C)CCC=C(C)C` (stereo not given): the TGI in the assay with IGROV1 ovarian, with HOP-92 NSCLC, in the assay on COLO 205 colon, with BT-549 breast, with RXF 393 renal and with MDA-MB-231 breast was above 100 µM each time. The TGI in the assay on LOX IMVI melanoma, in the assay on UACC-257 melanoma, in the assay with M14 melanoma, with UACC-62 melanoma, in the assay on SF-295 CNS and with SK-OV-3 ovarian was above 100 µM throughout. The TGI with DU-145 prostate, with HL-60(TB) leukemia and in the assay on OVCAR-8 ovarian was above 100 µM throughout.

Take `CC(=O)O[C@H]1C(=O)[C@@]2(C)[C@H]([C@H](OC(=O)c3ccccc3)[C@]3(O)C[C@H](OC(=O)[C@H](OC(=O)OCCC(O)CO)[C@@H](NC(=O)c4ccccc4)c4ccccc4)C(C)=C1C3(C)C)[C@]1(OC(C)=O)CO[C@@H]1C[C@@H]2O` (stereo not given in full): the TGI in the assay with IGROV1 ovarian came out at 34.7 µM; in the assay with HOP-92 NSCLC it was 61.6 µM; in the assay with BT-549 breast it was 19.1 µM; in the assay with RXF 393 renal, 18.5 µM; in the assay with MDA-MB-231 breast, 21.6 µM; in the assay with LOX IMVI melanoma it was 22 µM. Besides, the TGI was 23.3 µM in the assay with UACC-257 melanoma; 20.1 µM in the assay on UACC-62 melanoma; 0.187 µM in the assay on SF-295 CNS; above 100 µM with SK-OV-3 ovarian; below 0.01 µM in the assay on HL-60(TB) leukemia; above 53 µM with OVCAR-8 ovarian.

As to `CC(=O)Oc1ccc2c(c1)Oc1cc(C(C)=O)ccc1C21OC(=O)c2ccccc21` (stereo not given), the TGI in the assay with IGROV1 ovarian, in the assay on HOP-92 NSCLC, in the assay on COLO 205 colon, in the assay with BT-549 breast, in the assay on RXF 393 renal and in the assay with MDA-MB-231 breast was above 100 µM each time. In addition, the TGI with LOX IMVI melanoma, with UACC-257 melanoma, in the assay with M14 melanoma, with UACC-62 melanoma, in the assay with SF-295 CNS and with T-47D breast was above 100 µM in each case. The TGI in the assay on SK-OV-3 ovarian, in the assay with DU-145 prostate, with HL-60(TB) leukemia, in the assay with OVCAR-8 ovarian and in the assay with MALME-3M melanoma was above 100 µM each time.

`CSC1=C(C(=O)Nc2ccc(Cl)cc2)C(N)=NC1=O`: the TGI with IGROV1 ovarian, in the assay with COLO 205 colon, in the assay on BT-549 breast, with RXF 393 renal, in the assay with MDA-MB-231 breast and in the assay with LOX IMVI melanoma was above 100 µM each time. Also, the TGI with UACC-257 melanoma, in the assay with M14 melanoma, in the assay with UACC-62 melanoma, in the assay on T-47D breast, with SK-OV-3 ovarian and with HS 578T breast was above 100 µM each time. The TGI in the assay with DU-145 prostate, with HL-60(TB) leukemia, in the assay on OVCAR-8 ovarian and in the assay with MALME-3M melanoma was above 100 µM each time.

Consider `Cc1cc(C)nc(NS(=O)(=O)c2ccc(Nc3nncc(=O)n3N)cc2)n1`, for which the TGI was 33.1 µM in the assay with IGROV1 ovarian; above 100 µM in the assay with COLO 205 colon; 32.6 µM in the assay with BT-549 breast; 27.7 µM in the assay with LOX IMVI melanoma; 43.9 µM in the assay with UACC-257 melanoma; above 100 µM in the assay on M14 melanoma. The TGI in the assay on UACC-62 melanoma is 51.2 µM; in the assay with SF-295 CNS it was above 100 µM; with T-47D breast, 38.3 µM; with SK-OV-3 ovarian it was above 100 µM; in the assay on HS 578T breast, above 100 µM; with DU-145 prostate, above 100 µM. For the same compound, the TGI stood at 40.2 µM with HL-60(TB) leukemia, 29.2 µM with OVCAR-8 ovarian and 41.6 µM in the assay on MALME-3M melanoma.

For `CCOP(C)(=O)C(Cc1c[nH]c2ccccc12)C(=O)O` (stereo not given), the TGI with IGROV1 ovarian, in the assay on HOP-92 NSCLC, in the assay with COLO 205 colon, in the assay with BT-549 breast, with MDA-MB-231 breast and with M14 melanoma was above 100 µM throughout. Further, the TGI with UACC-62 melanoma, in the assay with SF-295 CNS, in the assay with T-47D breast, in the assay on SK-OV-3 ovarian, with DU-145 prostate and in the assay with HL-60(TB) leukemia was above 100 µM in each case. The TGI in the assay with OVCAR-8 ovarian and in the assay on MALME-3M melanoma was above 100 µM each time.

Regarding `COc1c(C)c(C/C=C(\C)CCCCO[Si](C(C)C)(C(C)C)C(C)C)c(OC)c2ccccc12`, the TGI in the assay with IGROV1 ovarian, in the assay with HOP-92 NSCLC, in the assay on COLO 205 colon, with BT-549 breast, with RXF 393 renal and with MDA-MB-231 breast was above 100 µM throughout. Further, the TGI in the assay on LOX IMVI melanoma, in the assay on UACC-257 melanoma, in the assay on M14 melanoma, with UACC-62 melanoma, with SF-295 CNS and in the assay with SK-OV-3 ovarian was above 100 µM each time. Further, the TGI with HS 578T breast, in the assay with DU-145 prostate and in the assay with OVCAR-8 ovarian was above 100 µM in each case.

As to `CCC(=O)Nc1ccc(N=Cc2cccc(Oc3ccccc3)c2)cc1`, the TGI with IGROV1 ovarian, with HOP-92 NSCLC, in the assay with COLO 205 colon, in the assay with BT-549 breast, with RXF 393 renal and in the assay on LOX IMVI melanoma was above 100 µM in each case. The TGI in the assay with M14 melanoma, in the assay on UACC-62 melanoma, with SF-295 CNS, in the assay on T-47D breast, with SK-OV-3 ovarian and in the assay with HS 578T breast was above 100 µM in each case. The TGI in the assay with DU-145 prostate is above 100 µM; in the assay with HL-60(TB) leukemia, 63 µM; in the assay on OVCAR-8 ovarian, 49.1 µM; in the assay with MALME-3M melanoma it was above 100 µM.

The values above are taken from PubChem BioAssay (NCI).
